The results in this text go back to patent US20160090351A1, “INHIBITORS OF DEUBIQUITINATING PROTEASES” (BRANDEIS UNIVERSITY, priority 2013, published 2016).

For test [1], the system named is USP9x, USP19, USP7/8, USP28/15. The test is described as follows: HA-Ub-VS activity profiling in cell lysates, USPs. In kind it is biochemical, human. As to conditions: for HA-Ub-VS labeling of USPs: HEK 293T lysates. As to the method: (§1) HA-ubiquitin vinylsulfone (HA-Ub-VS) irreversibly labels DUBs by modifying the catalytic cysteine residue Inhibition of the DUB prevents HA-Ub-VS labeling and the band is. […] The interaction with UCHL1/3 is reversible.
(§2) Lysate labeling assay on untransfected cells (1.5 mg/mL) was run with the stated concentration of inhibitor (or 1% DMSO control) for between 19-60 mins. After this time HA-Ub-VS (1.5-0.7 μM) was added and incubated for 19 mins. After this time reaction mixture (9 μL) was removed and quenched in 2× (final concentration) reducing loading buffer. For recovery experiments, a lysate of 6 mg/mL was treated with saturating compound C14 (250 μM) and incubated for 40 mins. Afterward, the lysate was diluted to 0.6 mg/mL (final concentration of inhibitor 25 μM) in lysis buffer (final volume 100 μL), then HA-Ub-VS was added. Aliquots (15 μL) were removed at the stated time (5-119 mins) and immediately quenched in 2× (final concentration) reducing loading buffer. For all HA-Ub-VS experiments samples in loading buffer were heated only to 37° C. prior to loading on a gel. This assay is highly susceptible to concentration of lysate and HA-Ub-VS. Cell experiments were carried out as above with some modifications. For Cos-1 and MCF-7 cells, after trypsinization, media with compound was added to give a final concentration of compound equal to that used in the assay. Cell pellets were lysed on an ice/salt bath with a temperature of −5° C. and lysate was centrifuged for only 5 mins.
(§3) HA-Ub-VS is an irreversible inhibitor of DUBs that is widely used in activity profiling. If the DUB inhibitors react to form a thiocarbonylated enzyme as proposed (FIG. 29B), then HA-Ub-VS labeling will be blocked. Treatment of HEK 293T lysates with HA-Ub-VS produced the characteristic pattern of protein bands at 250, 150-100, 45, 38 and 36 kDa, generally ascribed to USP9x (292 kDa), USP19 (146 kDa), USP7/8 (128 and 127 kDa, respectively), USP28/15 (122 and 112 kDa, respectively), UCH-L5 (38 kDa), UCH-L3 (26 kDa) and UCH-L1 (25 kDa) as depicted in FIG. 31.
(§4) The effect of diphenylcarbonates on HA-Ub-VS labeling was assessed to investigate the selectivity of DUB inhibition. Lysates were preincubated with diphenyl carbonates (75 μM), then treated with HA-Ub-VS (FIG. 31A). […] These C17 and C22-sensitive DUBs are most likely USP9x, USP19, USP7/8 and UCHL5, based on molecular weight (FIGS. 31B and 38). The identity of USP7 was confirmed by immunoblotting (FIG. 38F). […] Similar behavior was observed on Cos-1 cell lysates (FIG. 38B).

For test [2], the system named is UCH-L5, UCH-L3, UCH-L1. As to the kind of experiment: HA-Ub-VS activity profiling in cell lysates, UCH-Ls. In kind it is biochemical, human. The following applies: for HA-Ub-VS labeling of UCHL enzymes: 75 μM, 30 minutes preincubation. As to the method:
as §1, §2, §3, §4

Test [3] relates to K562 cells. As to the kind of experiment: apoptosis, cell cycle and viability of K562 cells by flow cytometry. In kind it is cell-based, human. As to conditions: K562 cells. As to the method:
K562 cells are from a myelogenous leukemia line that expresses Bcr-Abl kinase. A. K562 cells were treated with TU50 for 24 hours after which time the cells were treated with annexin V-FITC and propidium iodide. Cells were then analyzed by flow cytometry. Cells showing only annexin V-FITC were considered apoptotic whereas cells showing both annexin V-FITC and propidium iodide were considered necrotic. N=2. All points show a significant difference to the vehicle (DMSO) with p<0.05. […] All points show a significant difference to vehicle (DMSO) with p<0.02. C. Same as A, but the incubation period was 8 hours. N>2. All points show a significant difference to DMSO with p<0.02. D, K562 cells were treated with TU50 for 4 hours. Samples were analyzed by SDS-PAGE and immunoblotting with anti-Bcr-Abl antibody. E. Quantitation of blot in D. The signal for tubulin was used to normalize the Bcr-Abl signal. N=3.
FIG. 40 depicts data showing that diphenyl carbonates induce the degradation of Bcr-Abl kinase. A. K562 cells were treated with C17 for 24 h (1 dose) then analyzed for Bcr-Abl expression by western blot with anti-Abl antibody. B. Quantitation of blots in A normalized to actin. C. K562 cells were treated with C17 for 24 h then the amount of cells in G1 and apoptosis were recorded (N=3). D. K562 were treated with C15 for 4 h then analyzed for Bcr-Abl expression using western blot. E. Quantitation of Bcr-Abl from D normalized to tubulin (N=4). F. Same K562 lysates were separately analyzed for K63-linked ubiquitin. G. Quantitation of blots in F (N=4). Differences between all bars is significant p<0.01). H. K562 cells were treated with C15 for 24 h after which time cells were fixed in ethanol, treated with propodium iodide/RNAse then analyzed by FACS. Viability was calculated using forward and side scatter. I. Same experiment as H but red fluorescence was measured to determine DNA content
(In general: In flow cytometry, cells or beads pass a laser one at a time.)

Test [4] relates to Mdm2, p53, p21/WAF1. As to the kind of experiment: Mdm2, p53 and p21/WAF1 levels in MCF7 cells. The following applies: for Mdm2 levels: C17 4 h, C15 6 hours dosed every 2 hours. Type of test: cell-based, human. As to the method: FIG. 35 depicts data showing that diphenylcarbonates reduce the levels of Mdm2 and cause the accumulation of P53 and P21 in MCF7 cells. A. MCF7 cells were treated with C17 for 4 h and Mdm2 levels were measured. B. As in A, P53 measured. C. As in A, P21 measured. D. MCF7 and B16/F10 cells were treated with C17 every 24 hours. After 72 hours, the number of viable cells was measured by Alamar Blue®. See also FIG. 41 and FIG. 42.
C. Effect of C15 on PARP cleavage and P53 levels. […] E. Effects of C15 on Mdm2 and P21 levels. […] F. DMSO treated cells. […] C17 was dosed every 24 h. After this time, cells were analyzed by flow cytometry.
Transfected cells were harvested 1.5 days post transfection. […] Typically clarified lysate was analyzed.
The ability of diphenyl carbonates to inhibit USP7 function in cells was also assessed. The ubiquitin-ligase Mdm2 is a substrate for USP7. Mdm2 is responsible for the ubiquitination and subsequent degradation of p53. Mdm2 is over-expressed in many cancer cells, resulting in the depletion of p53. Mdm2 is itself degraded via an ubiquitin-dependent process. USP7 removes ubiquitin from Mdm2, protecting it from degradation. Like Mdm2, USP7 is over-expressed in many cancers. Inhibition of USP7 promotes the proteasome-mediated degradation of Mdm2, which causes an increase in p53 levels, as well as those of the downstream signaling protein p21/WAF1, and ultimately induces apoptosis.

[5] abbreviates: 75 μM, 30 minutes preincubation.

Each structure is given as a SMILES string.

Turning to `NCc1ccc(OC(=O)Oc2ccc(Cl)cc2)cc1` [Compound C14, 4-(aminomethyl)phenyl(4-chlorophenol)carbonate], in test [1] (setting [5]), the “HA-Ub-VS labeling of USPs” value was “decreased HA-Ub-VS labeling of several USPs”. For the same compound, in test [2] (HEK 293T lysates), the “HA-Ub-VS labeling of UCHL enzymes” value is given as “relatively little effect on the UCHL enzymes”.
In the case of `NCc1ccc(OC(=O)Oc2ccc(Br)cc2)cc1` [Compound C15, 4-(aminomethyl)phenyl(4-bromophenyl)carbonate], the “viability, G1 and apoptotic cells” value in test [3] (24 h, at 50 μM) is “decrease in viability, and increase in G1 and apoptotic cells”. The “HA-Ub-VS labeling of USPs” value in test [1] (setting [5]) is recorded as “decreased HA-Ub-VS labeling of several USPs”. Besides, the “HA-Ub-VS labeling of UCHL enzymes” value in test [2] (HEK 293T lysates) is reported as “relatively little effect on the UCHL enzymes”. Moreover, in test [4], the p21/WAF1 levels entry is “decreased p21/WAF1”, the p53 levels result was “increased P53 levels” and the Mdm2 levels entry is given as “decreased Mdm2”.
On to `NCc1ccc(OC(=O)Oc2ccc3ccccc3c2)cc1` [Compound C17], for which the “G1 and apoptotic cells” value in test [3] (24 h incubation) is “dose-dependent increase in G1 and apoptotic cells”. Besides, the “HA-Ub-VS labeling of USPs” value in test [1] (setting [5]) was “decreased HA-Ub-VS labeling of several USPs”. The “HA-Ub-VS labeling, dose response” value in test [1] (at 12 μM) was “significantly inhibited the labeling of several high molecular weight proteins”. The “HA-Ub-VS labeling of UCHL enzymes” value in test [2] (HEK 293T lysates) is given as “relatively little effect on the UCHL enzymes”. Also, the “inhibition of UCH-L1/3/5, dose response” value in test [2] (below 50 μM) is “little inhibition of UCH-L1/3/5 was observed below 50 μM”. Moreover, in test [4], the p21/WAF1 levels result is “robust increase in p21/WAF1 levels”, the p53 levels result is recorded as “concomitant increase in p53” and the Mdm2 levels entry is recorded as “Mdm2 levels decreased”.
Turning to `NCc1ccc(OC(=O)Oc2cccc3ccccc23)cc1` [Compound C18], the “HA-Ub-VS labeling of USPs” value in test [1] (setting [5]) was “decreased HA-Ub-VS labeling of several USPs”. Also, in test [2] (HEK 293T lysates), the “HA-Ub-VS labeling of UCHL enzymes” value is reported as “relatively little effect on the UCHL enzymes”.
As for `O=C1/C(=C/c2ccc([N+](=O)[O-])cc2)CS(=O)(=O)C/C1=C\c1ccc([N+](=O)[O-])cc1` [Compound G5, reference compound], the “HA-Ub-VS labeling of USPs” value in test [1] (preincubation with G5) is “decreased the labeling of all the USPs”. The “HA-Ub-VS labeling of UCH-Ls” value in test [2] (HEK 293T lysates, preincubation with G5) is on record as “UCH-L1 but not UCH-L3”.
